From BindingDB's records for patent US10836741 (Valo Early Discovery, Inc., 2020) come the findings set out here.

The target in the assay is T1, Ubiquitin carboxyl-terminal hydrolase 7 [208-1102] (Human, UniProt Q93009).
T1 construct: 208-1102
Nature of the assay: USP7 Assay A (Ubitquin-Rhodamine 110 Assay). As to the method: Each assay was performed in a final volume of 15 μL in assay buffer containing 20 mM Tris-HCl (pH 8.0, (1M Tris-HCl, pH 8.0 solution; Corning 46-031-CM)), 1 mM GSH (L-Glutathione reduced; Sigma # G4251), 0.03% BGG (0.22 μM filtered, Sigma, # G7516-25G), and 0.01% Triton X-100 (Sigma, # T9284-10L). Nanoliter quantities of either an 8-point or 10-point, 3-fold serial dilution in DMSO was pre-dispensed into assay plates (Perkin Elmer, ProxiPlate-384 F Plus, #6008269) for a final test concentration range of either 25 μM to 11 nM or 25 μM to 1.3 nM, respectively. The final concentration of the enzyme (USP7, construct USP7 (208-1102) 6*His, Viva Biotech) in the assay was 62.5 pM. Final substrate (Ub-Rh110; Ubiquitin-Rhodamine 110, R&D Systems # U-555) concentration was 25 nM with [Ub-Rh110]<<Km. 5 μL of 2× enzyme was added to assay plates (pre-stamped with compound) preincubated with USP7 for 30 min and then 5 μL of 2×Ub-Rh110 was added to assay plates. Plates were incubated stacked for 20 min at room temperature before 5 μL of stop solution (final concentration of 10 mM citric acid in assay buffer (Sigma, #251275-500G)). Fluorescence was read on the Envision (Excitation at 485 nm and Emission at 535 nm; Perkin Elmer) or on the PheraSTAR (Excitation at 485 nm and Emission at 535 nm; BMG Labtech).

Structures are written as SMILES. A value given as a limit tells only on which side of the number the result lay.

T1 sequence (Q93009 208-1102): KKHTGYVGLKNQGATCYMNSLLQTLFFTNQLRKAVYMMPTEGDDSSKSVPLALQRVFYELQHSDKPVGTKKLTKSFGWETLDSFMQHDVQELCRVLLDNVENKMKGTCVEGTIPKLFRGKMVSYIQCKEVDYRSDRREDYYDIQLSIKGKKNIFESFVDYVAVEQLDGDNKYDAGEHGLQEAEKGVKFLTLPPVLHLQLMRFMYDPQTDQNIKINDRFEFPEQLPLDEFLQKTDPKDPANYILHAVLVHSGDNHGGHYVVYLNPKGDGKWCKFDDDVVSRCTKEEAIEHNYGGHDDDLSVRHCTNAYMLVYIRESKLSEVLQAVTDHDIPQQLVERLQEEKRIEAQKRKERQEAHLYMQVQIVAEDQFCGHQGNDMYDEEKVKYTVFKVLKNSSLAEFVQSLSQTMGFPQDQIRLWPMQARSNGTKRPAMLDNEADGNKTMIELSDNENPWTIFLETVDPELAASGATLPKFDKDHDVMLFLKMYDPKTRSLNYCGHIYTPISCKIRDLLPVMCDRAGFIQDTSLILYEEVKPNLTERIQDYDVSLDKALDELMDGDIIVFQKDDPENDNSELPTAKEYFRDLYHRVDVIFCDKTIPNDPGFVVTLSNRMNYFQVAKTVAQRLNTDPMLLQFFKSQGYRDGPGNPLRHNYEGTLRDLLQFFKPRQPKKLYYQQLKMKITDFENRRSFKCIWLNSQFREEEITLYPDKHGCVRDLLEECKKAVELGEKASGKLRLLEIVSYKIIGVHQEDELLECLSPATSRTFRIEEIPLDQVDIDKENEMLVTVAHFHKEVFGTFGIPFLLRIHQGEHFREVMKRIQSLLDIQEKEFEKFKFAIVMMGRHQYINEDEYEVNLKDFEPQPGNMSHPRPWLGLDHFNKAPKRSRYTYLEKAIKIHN

One may read the IC50 as the point on the concentration scale where inhibition reaches its midpoint. Higher therefore signals weaker potency in that assay. Consider `COc1cccc2c(=O)n(CC3(O)CCN(C(=O)CC(C)c4ccccc4)CC3)cnc12` (stereo unspecified) [US10836741, Example I-6], for which the IC50 is less than 200 nM.
